Measured values as given in publication PMC7702303, “Biochemical and transcript level differences between the three human phosphofructokinases show optimisation of each isoform for specific metabolic niches” (Biochemical Journal, 2020).
Values joined by “and” are separate entries in the source; they are usually repeats but may differ in a detail not shown here. Equal values may be shown once. Read-outs that look alike come from different tables or passages of the source.

How the values were obtained:
recombinant human PFK-L = biological target: T1, recombinant human PFK-L (Homo sapiens, UniProt P17858); experiment: ALDO-TIM-G3PDH enzyme-linked kinetic assay, PFK-L; type: biochemical; details: PFK-L
T1 construct: made in house; host or cells: PFK-deficient Saccharomyces cerevisiae
T1 sequence (P17858 1-780): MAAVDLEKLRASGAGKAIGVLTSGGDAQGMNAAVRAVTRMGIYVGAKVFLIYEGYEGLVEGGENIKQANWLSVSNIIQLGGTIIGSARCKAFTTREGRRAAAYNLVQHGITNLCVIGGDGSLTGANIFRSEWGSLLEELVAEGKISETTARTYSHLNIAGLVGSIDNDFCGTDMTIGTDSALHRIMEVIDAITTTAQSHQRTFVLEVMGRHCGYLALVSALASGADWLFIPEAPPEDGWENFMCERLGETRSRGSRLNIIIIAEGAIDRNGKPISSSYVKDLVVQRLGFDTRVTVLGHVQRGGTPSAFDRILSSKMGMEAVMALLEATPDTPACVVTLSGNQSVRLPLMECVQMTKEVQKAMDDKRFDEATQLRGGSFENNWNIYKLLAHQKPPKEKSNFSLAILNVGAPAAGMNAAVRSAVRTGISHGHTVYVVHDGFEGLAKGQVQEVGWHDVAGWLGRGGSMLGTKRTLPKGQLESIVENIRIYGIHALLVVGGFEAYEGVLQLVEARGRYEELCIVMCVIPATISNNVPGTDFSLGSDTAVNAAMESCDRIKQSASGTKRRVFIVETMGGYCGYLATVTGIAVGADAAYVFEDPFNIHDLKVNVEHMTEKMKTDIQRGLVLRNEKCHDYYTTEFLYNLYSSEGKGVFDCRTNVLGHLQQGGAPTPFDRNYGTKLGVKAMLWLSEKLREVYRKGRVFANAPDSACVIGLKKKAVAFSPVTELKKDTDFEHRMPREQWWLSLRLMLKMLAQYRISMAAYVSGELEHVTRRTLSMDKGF
Experimental: (§1) Recombinant human PFKs were expressed in PFK-deficient Saccharomyces cerevisiae and purified using the methods described previously, adapting earlier materials and protocols. Production of PFK intended for use in ATP titration experiments used 1 mM F6P as a tetramer stabilising agent in protein purification and storage buffers. Production of PFK intended for use in F6P titration experiments used 1 mM ATP as a tetramer stabilising agent in protein purification and storage buffers. Experimental details on the purification and characterisation procedures including figures showing SDS–PAGE gels of the highly pure PFKs used in the kinetic experiments described in this work have been recently published.
(§2) Assay buffer consisted of 50 mM TEA, 100 mM KCl, 10 mM MgCl2, 1 mM Tris(2-carboxyethyl)phosphine hydrochloride (TCEP), 10% glycerol, pH 7.4. Assay mix consisted of 5 units/ml glycerol-3-phosphate dehydrogenase (G3PDH, Sigma–Aldrich G6880), 2.5 units/ml aldolase (Sigma–Aldrich A2714), 25 units/ml triosephosphate isomerase (TIM, Sigma–Aldrich T6258), and 1.25 mM NADH. ATP and F6P were obtained from Sigma–Aldrich (A2383 and F3627, respectively). For ATP titrations, 38 µl of buffer or ligand were added to a clear non-binding 96-well plate. 40 µl of assay mix containing 10 mM F6P (final concentration 4 mM) was added and the plate was incubated at 25°C for 5 min. An amount of 2 µl of PFK isoforms were added to each well from stock concentrations of 150 µg/ml and the reaction was immediately started with 20 µl of ATP at varying concentrations. For F6P titrations, 30 µl of buffer or ligand was added to a clear non-binding 96-well plate. An amount of 40 µl of assay mix containing 1.25 mM ATP (final concentration 0.5 mM) was added and the plate was incubated at 25°C for 5 min. An amount of 5 µl of PFK isoforms were added to each well from stock concentrations of 200 µg/ml and the reaction was immediately started with 20 µl F6P at varying concentrations. All ligands and substrates (including ATP) were used at pH 7.4. All metabolites were obtained from Sigma–Aldrich unless otherwise stated. […] A SpectraMax M5 Multi-Mode Microplate Reader was used to measure A340nm at 13 s intervals for 10 min. All experiments were performed in triplicate unless otherwise stated.
(§3) Time-dependent absorbance change was converted into rate of NADH oxidation (µM s^−1) or specific activity (µmol min^−1 mg protein^−1) using the Beer-Lambert law (molar extinction coefficient of NADH 6.22 mM^−1 cm^−1). The initial rate of reaction was used to avoid accumulation of ADP, which activates PFK, interfering with the determination of kinetic properties. Non-linear regression analysis was performed on substrate titration data using GraphPad Prism 7, with curves fitted using allosteric sigmoidal models, enabling determination of steady-state kinetic values.

recombinant human PFK-P = biological target: T2, recombinant human PFK-P (Homo sapiens, UniProt Q01813); experiment: ALDO-TIM-G3PDH enzyme-linked kinetic assay, PFK-P; type: biochemical
T2 construct: made in house; host or cells: PFK-deficient Saccharomyces cerevisiae
T2 sequence (Q01813 1-784): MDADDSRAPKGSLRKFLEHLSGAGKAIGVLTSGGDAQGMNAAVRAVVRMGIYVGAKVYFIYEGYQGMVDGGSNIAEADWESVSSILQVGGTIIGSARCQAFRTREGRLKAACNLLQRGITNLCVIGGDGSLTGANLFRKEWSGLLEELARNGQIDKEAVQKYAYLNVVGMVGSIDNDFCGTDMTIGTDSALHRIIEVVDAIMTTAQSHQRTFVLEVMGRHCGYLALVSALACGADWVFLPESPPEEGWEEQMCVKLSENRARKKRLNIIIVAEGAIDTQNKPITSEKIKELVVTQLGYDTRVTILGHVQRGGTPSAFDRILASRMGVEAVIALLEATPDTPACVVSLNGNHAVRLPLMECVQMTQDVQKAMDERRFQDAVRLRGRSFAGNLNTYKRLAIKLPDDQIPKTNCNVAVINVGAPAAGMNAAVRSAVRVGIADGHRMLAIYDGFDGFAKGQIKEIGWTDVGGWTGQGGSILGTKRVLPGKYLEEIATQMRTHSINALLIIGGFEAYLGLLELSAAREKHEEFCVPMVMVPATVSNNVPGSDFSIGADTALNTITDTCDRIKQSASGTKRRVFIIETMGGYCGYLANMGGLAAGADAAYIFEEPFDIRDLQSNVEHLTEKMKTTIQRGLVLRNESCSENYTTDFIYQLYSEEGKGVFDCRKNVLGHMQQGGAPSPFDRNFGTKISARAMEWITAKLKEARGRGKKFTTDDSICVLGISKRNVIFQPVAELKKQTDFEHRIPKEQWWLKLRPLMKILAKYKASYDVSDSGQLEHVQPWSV
Experimental: as §1, §2, §3

PFK = tested on: PFK; set-up: key to Effect (activator or inhibitor of PFK): “+” indicates activator; “-“ indicates inhibitor; details: cited from earlier work; for IC50: asterisk not explained, ref Moreno-Sanchez et al., 2012, read-out: IC50 or AC50 (inhibitor)
[1] = 1 mM ATP compared with 0.5 mM ATP
[2] = ATP titration, F6P 4 mM, n = 6, mean (SD)
[3] = Hill value, ATP titration, F6P 4 mM, n = 6, mean (SD)
[4] = control without modulator, run alongside modulator experiments, F6P 4mM, N=3, mean (SD)
[5] = F6P titration, ATP 0.5 mM, n = 6, mean (SD)
[6] = control without modulator, run alongside modulator experiments, ATP 0.5mM, N=3, mean (SD)
[7] = GTP titration, F6P 4 mM, n = 3, mean (SD)
[8] = Hill value, GTP titration, F6P 4 mM, n = 3, mean (SD)

Nc1ncnc2c1ncn2[C@@H]1O[C@H](COP(=O)(O)OP(=O)(O)OP(=O)(O)O)[C@@H](O)[C@H]1O [ATP]
decrease in specificity constant (ATP inhibition) (recombinant human PFK-L; [1]): 31%
K0.5^ATP (recombinant human PFK-L; [2]): 160 µM and 160.1 (13.5) µM
Vmax^ATP (recombinant human PFK-L; [2]): 39.3 (1.2) µmoles/min.mg
kcat^ATP (recombinant human PFK-L; [2]): 57.3 (1.7) s^−1
kcat^ATP/K0.5^ATP (recombinant human PFK-L; [2]): 0.36 s^−1 µM^−1 and 0.36 (0.13) s^−1 µM^−1
h (ATP) (recombinant human PFK-L; [3]): 1.12 (0.08)
K0.5ATP (recombinant human PFK-L; [4]): 151.2 (16.9) M and 169.0 (21.5) M
VmaxATP (recombinant human PFK-L; [4]): 39.26 (1.51) moles/min/mg and 39.36 (1.80) moles/min/mg
decrease in specificity constant (ATP inhibition) (recombinant human PFK-P; [1]): 50%
K0.5^ATP (recombinant human PFK-P; [2]): 275 µM and 276 µM and 275.6 (84.4) µM
Vmax^ATP (recombinant human PFK-P; [2]): 27.2 (2.5) µmoles/min.mg
kcat^ATP (recombinant human PFK-P; [2]): 39.7 (1.7) s^−1
kcat^ATP/K0.5^ATP (recombinant human PFK-P; [2]): 0.14 s^−1 µM^−1 and 0.14 (0.02) s^−1 µM^−1
h (ATP) (recombinant human PFK-P; [3]): 0.76 (0.09)
K0.5ATP (recombinant human PFK-P; [4]): 326.9 (99.7) M and 217.9 (74.5) M
VmaxATP (recombinant human PFK-P; [4]): 30.74 (2.92) moles/min/mg and 23.65 (2.40) moles/min/mg
IC50 (PFK; first of three values marked *): 1.1 mM
Effect (activator or inhibitor of PFK) (PFK; published literature, ref selected references in Supplementary Table 1): -
IC50 (PFK; second of three values marked *): 2.9 mM
IC50 (PFK; third of three values marked *): 1.75 mM

O=C(CO)[C@@H](O)[C@H](O)[C@H](O)COP(=O)(O)O [F6P, fructose 6-phosphate]
K0.5^F6P (recombinant human PFK-L; [5]): 1360 µM and 1360 (40) µM
K0.5F6P (recombinant human PFK-L; [6]): 1432 (34) M and 1282 (53) M
K0.5^F6P (recombinant human PFK-P; [5]): 1333 µM and 1333 (312) µM
K0.5F6P (recombinant human PFK-P; [6]): 1238 (179) M and 1607 (90) M

Nc1nc2c(ncn2[C@@H]2O[C@H](COP(=O)(O)OP(=O)(O)OP(=O)(O)O)[C@@H](O)[C@H]2O)c(=O)[nH]1 [GTP]
K0.5^GTP (recombinant human PFK-L; [7]): 158 µM and 157.8 (10.8) µM
Vmax^GTP (recombinant human PFK-L; [7]): 25.39 (0.56) µmoles/min.mg
kcat^GTP (recombinant human PFK-L; [7]): 37.0 (0.8) s^−1
kcat^GTP/K0.5^GTP (recombinant human PFK-L; [7]): 0.23 s^−1 µM^−1 and 0.23 (0.07) s^−1 µM^−1
h (GTP) (recombinant human PFK-L; [8]): 1.18 (0.08)
K0.5^GTP (recombinant human PFK-P; [7]): 131 µM and 131 (20.9) µM
Vmax^GTP (recombinant human PFK-P; [7]): 12.30 (0.62) µmoles/min.mg
kcat^GTP (recombinant human PFK-P; [7]): 17.9 (0.9) s^−1
kcat^GTP/K0.5^GTP (recombinant human PFK-P; [7]): 0.14 s^−1 µM^−1 and 0.14 (0.04) s^−1 µM^−1
h (GTP) (recombinant human PFK-P; [8]): 1.12 (0.18)
